According to PubChem BioAssay (NCI):
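Each compound was tested at five concentrations against cells in 96-well plates for 48 hours. GI50: concentration for 50% inhibition of growth. The concentration for full growth arrest is given as TGI.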

How the values were obtained:
Assay in all cases: DTP human tumour cell line panel, 48 h
[1] = system: 786-0 renal
[2] = system: A498 renal
[3] = system: A549 NSCLC
[4] = system: ACHN renal
[5] = system: BT-549 breast
[6] = system: CAKI-1 renal
[7] = system: COLO 205 colon
[8] = system: DU-145 prostate
[9] = system: EKVX NSCLC
[10] = system: HCC-2998 colon
[11] = system: HCT-116 colon
[12] = system: HCT-15 colon
[13] = system: HL-60(TB) leukemia
[14] = system: HOP-92 NSCLC
[15] = system: HS 578T breast
[16] = system: HT29 colon
[17] = system: IGROV1 ovarian
[18] = system: K-562 leukemia
[19] = system: KM12 colon
[20] = system: LOX IMVI melanoma
[21] = system: M14 melanoma
[22] = system: MALME-3M melanoma
[23] = system: MCF7 breast
[24] = system: MDA-MB-231 breast
[25] = system: MDA-MB-435
[26] = system: MOLT-4 leukemia
[27] = system: NCI-H226 lung
[28] = system: NCI-H23 lung
[29] = system: NCI-H460 lung
[30] = system: NCI-H522 lung
[31] = system: NCI/ADR-RES ovarian
[32] = system: OVCAR-3 ovarian
[33] = system: OVCAR-4 ovarian
[34] = system: OVCAR-5 ovarian
[35] = system: OVCAR-8 ovarian
[36] = system: RPMI-8226 leukemia
[37] = system: RXF 393 renal
[38] = system: SF-268 CNS
[39] = system: SF-539 CNS
[40] = system: SK-MEL-2 melanoma
[41] = system: SK-MEL-28 melanoma
[42] = system: SK-MEL-5 melanoma
[43] = system: SK-OV-3 ovarian
[44] = system: SN12C renal
[45] = system: SNB-19 CNS
[46] = system: SNB-75 CNS
[47] = system: SW-620 colon
[48] = system: T-47D breast
[49] = system: TK-10 renal
[50] = system: U251 CNS
[51] = system: UACC-257 melanoma
[52] = system: UACC-62 melanoma
[53] = system: UO-31 renal
[54] = system: CCRF-CEM leukemia
[55] = system: HOP-62 NSCLC
[56] = system: PC-3 prostate
[57] = system: SF-295 CNS

O=C(Cc1n[nH]c(=O)c2ccccc12)OCc1c(Cl)cccc1Cl
GI50 [1]: 15.1 µM
TGI [1]: > 100 µM
GI50 [2]: > 100 µM
TGI [2]: > 100 µM
GI50 [3]: > 100 µM
TGI [3]: > 100 µM
GI50 [4]: 82 µM
TGI [4]: > 100 µM
GI50 [5]: 16.3 µM
TGI [5]: > 100 µM
GI50 [6]: 26.2 µM
TGI [6]: > 100 µM
GI50 [7]: 5.63 µM
TGI [7]: > 100 µM
GI50 [8]: 53.4 µM
TGI [8]: > 100 µM
GI50 [9]: > 100 µM
TGI [9]: > 100 µM
GI50 [10]: 50.4 µM
TGI [10]: > 100 µM
GI50 [11]: 3.64 µM
TGI [11]: > 100 µM
GI50 [12]: 1.74 µM
TGI [12]: > 100 µM
GI50 [13]: 6.53 µM
TGI [13]: > 100 µM
GI50 [14]: > 100 µM
TGI [14]: > 100 µM
GI50 [15]: 17.4 µM
TGI [15]: > 100 µM
GI50 [16]: 15.6 µM
TGI [16]: > 100 µM
GI50 [17]: > 100 µM
TGI [17]: > 100 µM
GI50 [18]: 4.19 µM
TGI [18]: > 100 µM
GI50 [19]: 24.2 µM
TGI [19]: > 100 µM
GI50 [20]: 5.16 µM
TGI [20]: > 100 µM
GI50 [21]: > 100 µM
TGI [21]: > 100 µM
GI50 [22]: 48.5 µM
TGI [22]: > 100 µM
GI50 [23]: > 100 µM
TGI [23]: > 100 µM
GI50 [24]: 69.8 µM
TGI [24]: > 100 µM
GI50 [25]: > 100 µM
TGI [25]: > 100 µM
GI50 [26]: 4.07 µM
TGI [26]: > 100 µM
GI50 [27]: 9.97 µM
TGI [27]: > 100 µM
GI50 [28]: > 100 µM
TGI [28]: > 100 µM
GI50 [29]: 2.39 µM
TGI [29]: > 100 µM
GI50 [30]: > 100 µM
TGI [30]: > 100 µM
GI50 [31]: 93.6 µM
TGI [31]: > 100 µM
GI50 [32]: 41.9 µM
TGI [32]: > 100 µM
GI50 [33]: > 100 µM
TGI [33]: > 100 µM
GI50 [34]: > 100 µM
TGI [34]: > 100 µM
GI50 [35]: 36.5 µM
TGI [35]: > 100 µM
GI50 [36]: 82.4 µM
TGI [36]: > 100 µM
GI50 [37]: 24.1 µM
TGI [37]: 68.3 µM
GI50 [38]: 9.21 µM
TGI [38]: > 100 µM
GI50 [39]: 10.1 µM
TGI [39]: > 100 µM
GI50 [40]: > 100 µM
TGI [40]: > 100 µM
GI50 [41]: > 100 µM
TGI [41]: > 100 µM
GI50 [42]: 4.18 µM
TGI [42]: > 100 µM
GI50 [43]: 12.8 µM
TGI [43]: > 100 µM
GI50 [44]: > 100 µM
TGI [44]: > 100 µM
GI50 [45]: 15.6 µM
TGI [45]: > 100 µM
GI50 [46]: 25.8 µM
TGI [46]: > 100 µM
GI50 [47]: 49.8 µM
TGI [47]: > 100 µM
GI50 [48]: 24.6 µM
TGI [48]: > 100 µM
GI50 [49]: 41 µM
TGI [49]: > 100 µM
GI50 [50]: 8.39 µM
TGI [50]: > 100 µM
GI50 [51]: > 100 µM
TGI [51]: > 100 µM
GI50 [52]: 8.55 µM
TGI [52]: > 100 µM
GI50 [53]: > 100 µM
TGI [53]: > 100 µM

CCOc1cc(F)c([N+](=O)[O-])cc1[N+](=O)[O-]
GI50 [1]: 3.77 µM
TGI [1]: 13.9 µM
GI50 [2]: 5.81 µM
TGI [2]: 18.2 µM
GI50 [3]: 3.68 µM
TGI [3]: 14.9 µM
GI50 [4]: 2.02 µM
TGI [4]: 4.81 µM
GI50 [5]: 3.12 µM
TGI [5]: 11.2 µM
GI50 [6]: 1.19 µM
TGI [6]: 2.42 µM
GI50 [54]: 2.68 µM
TGI [54]: 6.4 µM
GI50 [7]: 2.03 µM
TGI [7]: 3.88 µM
GI50 [8]: 1.99 µM
TGI [8]: 4.04 µM
GI50 [9]: 1.85 µM
TGI [9]: 4.5 µM
GI50 [10]: 1.87 µM
TGI [10]: 3.31 µM
GI50 [11]: 1.64 µM
TGI [11]: 2.99 µM
GI50 [12]: 2.71 µM
TGI [12]: 9.22 µM
GI50 [13]: 1.77 µM
TGI [13]: 4.81 µM
GI50 [55]: 9.35 µM
TGI [55]: 21.6 µM
GI50 [15]: 2.48 µM
TGI [15]: 7.97 µM
GI50 [18]: 3.01 µM
TGI [18]: 57 µM
GI50 [19]: 1.81 µM
TGI [19]: 3.49 µM
GI50 [20]: 1.66 µM
TGI [20]: 3.02 µM
GI50 [21]: 1.67 µM
TGI [21]: 3.03 µM
GI50 [23]: 0.886 µM
TGI [23]: 17.3 µM
GI50 [24]: 1.99 µM
TGI [24]: 4.39 µM
GI50 [25]: 2.59 µM
TGI [25]: 7.31 µM
GI50 [26]: 2.85 µM
TGI [26]: 8.02 µM
GI50 [27]: 2.81 µM
TGI [27]: 8.48 µM
GI50 [28]: 2.42 µM
TGI [28]: 5.56 µM
GI50 [29]: 2.38 µM
TGI [29]: 5.35 µM
GI50 [30]: 1.5 µM
TGI [30]: 3.24 µM
GI50 [31]: 2.88 µM
TGI [31]: 8 µM
GI50 [32]: 1.83 µM
TGI [32]: 3.23 µM
GI50 [33]: 1.92 µM
TGI [33]: 3.48 µM
GI50 [34]: 1.8 µM
TGI [34]: 4.34 µM
GI50 [35]: 2.57 µM
TGI [35]: 6.64 µM
GI50 [56]: 4.63 µM
TGI [56]: 18 µM
GI50 [36]: 3.43 µM
TGI [36]: 11.2 µM
GI50 [37]: 1.89 µM
TGI [37]: 3.37 µM
GI50 [38]: 2.56 µM
TGI [38]: 6.46 µM
GI50 [57]: 3.19 µM
TGI [57]: 12.8 µM
GI50 [39]: 1.85 µM
TGI [39]: 3.85 µM
GI50 [40]: 1.89 µM
TGI [40]: 4.4 µM
GI50 [41]: 2.5 µM
TGI [41]: 6.12 µM
GI50 [42]: 2.99 µM
TGI [42]: 8.4 µM
GI50 [43]: 14.5 µM
TGI [43]: 27.6 µM
GI50 [44]: 2 µM
TGI [44]: 4.32 µM
GI50 [45]: 3.82 µM
TGI [45]: 13.3 µM
GI50 [46]: 3.58 µM
TGI [46]: 14.1 µM
GI50 [47]: 1.78 µM
TGI [47]: 3.3 µM
GI50 [48]: 3.31 µM
TGI [48]: 14.7 µM
GI50 [49]: 2.91 µM
TGI [49]: 10.1 µM
GI50 [50]: 1.69 µM
TGI [50]: 3.24 µM
GI50 [51]: 1.6 µM
TGI [51]: 3.23 µM
GI50 [52]: 1.73 µM
TGI [52]: 3.75 µM

CCOC(=O)C1=C(C)NC(=O)NC1c1ccc(N(CCCl)CCCl)cc1Cl (stereo not drawn)
TGI [1]: 29.2 µM
TGI [2]: 29.4 µM
TGI [3]: 26.6 µM
TGI [4]: 27.5 µM
TGI [5]: 28.9 µM
TGI [6]: 30.9 µM
TGI [7]: 32.6 µM
TGI [8]: 32.1 µM
TGI [9]: 45.8 µM
TGI [11]: 27.4 µM
TGI [12]: 30.8 µM
TGI [13]: 13.4 µM
TGI [55]: 28.5 µM
TGI [14]: 25.7 µM
TGI [15]: 36.1 µM
TGI [16]: 29.5 µM
TGI [17]: 28.4 µM
TGI [18]: 24.3 µM
TGI [19]: 33.9 µM
TGI [20]: 29.4 µM
TGI [21]: 29.2 µM
TGI [22]: 28.1 µM
TGI [23]: 26.5 µM
TGI [24]: 26.5 µM
TGI [25]: 33.1 µM
TGI [27]: 28.8 µM
TGI [28]: 32.7 µM
TGI [29]: 25.6 µM
TGI [30]: 26.4 µM
TGI [31]: 30.3 µM
TGI [32]: 28.8 µM
TGI [33]: 33.1 µM
TGI [34]: 31.8 µM
TGI [35]: 25.6 µM
TGI [56]: 28.5 µM
TGI [37]: 30.8 µM
TGI [38]: 28.8 µM
TGI [57]: 29.2 µM
TGI [39]: 30.9 µM
TGI [40]: 29.8 µM
TGI [41]: 31.4 µM
TGI [42]: 27.8 µM
TGI [43]: 33.6 µM
TGI [44]: 29.8 µM
TGI [45]: 31.2 µM
TGI [46]: 28.1 µM
TGI [47]: 31.8 µM
TGI [48]: 19.5 µM
TGI [49]: 33.6 µM
TGI [50]: 30.2 µM
TGI [51]: 29.5 µM
TGI [52]: 22.4 µM
TGI [53]: 27.3 µM
